In PubChem BioAssay AID504322 (Emory University Molecular Libraries Screening Center, 2011) one finds IC50 data, which are given here for 87 compounds.

The structures appear in SMILES notation. Calls of active or inactive are those of the source. How the calls were made is not given here.

A word on the IC50: it is the concentration that inhibits the measured activity by half.

The test deals with CHOP reporter cell assay, percent of control. Kind of test: CHOP reporter inhibitor potency, dose response, cell-based (AID 504322).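 Further: CHO cells carrying a CHOP reporter stimulated with tunicamycin to induce ER stress; potency is for inhibition of the stress-induced reporter signal.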
For `C=C1C(=O)O[C@@H]2C[C@@H](C)[C@@H]3C4OC4C(=O)[C@@]3(C)[C@@H](O)[C@H]12` (some centres not stated), the IC50 is 9.5 µM (inactive).
Take `CC(C)(C)c1ccc(OCC(=O)N/N=C/C2CC=CCC2)cc1` (configuration not stated): the IC50 was 7.48 µM (inactive).
The same measure for `C#CC(=O)N(c1cccc(OC)c1)C(C(=O)NC1CCCC1)c1cccs1` (configuration not stated): 4.53 µM; for `CCOc1cc(S(=O)(=O)Nc2ccc(CC)cc2)ccc1Cl`: 4.48 µM (inactive); for `Cc1cccc(/C=N/Nc2ccc3ccccc3n2)c1`: > 10 µM (inactive).
The same measure for `O=S(=O)(N/N=C/c1ccc(Cl)cc1)c1ccc(Cc2ncc(C(F)(F)F)cc2Cl)s1`: 6.37 µM (inactive).
The figure for `O=C1C(Cl)=C(Nc2ccccc2)C(=O)c2ccccc21` is > 10 µM (inactive); for `CCN1/C(=C\C=C\C2=[N+](CC)c3ccccc3C2(C)C)C(C)(C)c2ccccc21` it is 0.32 µM (inactive).
With `Cc1ccc(-c2nc(C(Cl)Cl)c3ccccc3n2)cc1`, the IC50 was 2.08 µM.
The figure for `O=C(/C=C/c1ccccc1)Nc1cccc(C(=O)O)c1` is 3.59 µM (inactive); for `Cc1ccc(C(C(=O)NCc2ccco2)N(C(=O)CNC(=O)c2cccs2)c2c(C)cccc2C)cc1` (configuration not stated) it is > 10 µM (inactive); for `Cc1ccc(-c2ccc(/C=C(\C#N)C(=O)Nc3cc(C)nn3-c3ccccc3)o2)cc1` it is 6.7 µM (inactive).
Consider `CCCCCCOC(=O)Nc1ccc(S(=O)(=O)Nc2cccc([N+](=O)[O-])c2)cc1`, for which the IC50 was > 10 µM (inactive).
The figure for `CC(C)CCSc1nc2c(c(=O)[nH]c(=O)n2C)n1CCCc1ccccc1` is 5.19 µM; for `CC(C)(C)c1nnc(N/N=C/c2cc(Br)ccc2O)n(N)c1=O` it is 5.11 µM (inactive).
Regarding `CCn1c(=O)c(C(=O)Nc2nc3ccccc3[nH]2)c(O)c2ccccc21`, the IC50 is 5.84 µM (inactive).
The figure for `O=C(NNc1ccccc1Br)C(O)(c1cccc(C(F)(F)F)c1)c1cccc(C(F)(F)F)c1` is 2.14 µM; for `CCOC(=O)c1[nH]c2ccc(Cl)cc2c1-c1ccccc1` it is 9.7 µM (inactive).
In the case of `CCC(NC(=O)Nc1nnc(C(F)(F)F)s1)(C(F)(F)F)C(F)(F)F`, the IC50 is 2.56 µM (inactive).
The figure for `OC1(c2cccc(C(F)(F)F)c2)CCN(c2ncnc3c2[nH]c2ccc(F)cc23)CC1` is 4.54 µM (inactive); for `C=CS(=O)(=O)c1ccc(Oc2ccc(S(=O)(=O)C=C)cc2)cc1` it is 1.7 µM; for `CC(C)(C)c1ccc(C(=O)Nc2ccc(CC(=O)O)cc2)o1` it is less than 0.16 µM.
For the compound `Cc1cccc(/C=C/C(=O)c2cc(Br)ccc(=O)c2O)c1`, the IC50 was 8.57 µM (inactive).
The same measure for `CC(C)c1ccc(-c2cc(C(=O)N3N=C(C(F)F)CC3(O)C(F)F)c3ccccc3n2)cc1` (configuration not stated): 8.38 µM (inactive); for `O=C(Nc1ccccc1)Nc1cc(OCC(F)(F)F)cc(OCC(F)(F)F)c1`: 2.34 µM; for `C=CCn1c(SCC(=O)Nc2ccc(-c3nc4ccc(C)cc4s3)cc2)nnc1-c1ccccc1`: 9.89 µM (inactive).
The figure for `C=CCn1c(CCc2cc(C(C)(C)C)c(O)c(C(C)(C)C)c2)n[nH]c1=S` is 7 µM (inactive); for `CCSCCc1nnc(NC(=O)Nc2cccc(C(F)(F)F)c2)s1` it is 6.82 µM (inactive).
The figure for `COc1cc(C)nc(N2CCCC(C(=O)Nc3cccc(Cl)c3C)C2)n1` (configuration not stated) is 6.3 µM (inactive).
Take `O=C(OCC(F)(F)F)c1cccc(COc2ccc3ccccc3c2)c1`: the IC50 was 1.26 µM.
With `FC(F)(F)c1ccc(/C=N/NC(=S)NC2CCCCC2)cc1`, the concentration for half-maximal inhibition (IC50) was 5.03 µM.
Turning to `CCCCCCOC(=O)c1ccccc1N`, the IC50 is 6.31 µM (inactive).
As for `CCCCc1ccc(Nc2nc(CCC)cc(=O)[nH]2)cc1`, the IC50 was 1.97 µM (inactive).
The figure for `Cc1nc(Nc2nc(CSc3nc4ccccc4[nH]3)cc(=O)[nH]2)nc2ccccc12` is 5.68 µM (inactive); for `CCOC(=O)N=Nc1c2ccccc2c2nc3no[nH]c3nc12` it is 4.21 µM.
The figure for `CC(C)c1ccccc1NC(=O)Cn1c(/C=C/c2ccccc2)nc2ccccc21` is 5.88 µM (inactive); for `CCCCCCCCCCCCCCCCn1cc[n+](C)c1` it is 0.86 µM (inactive); for `COC(=O)c1ccccc1NC1=C/C(=N\S(=O)(=O)c2cccs2)c2ccccc2C1=O` it is > 10 µM (inactive).
Consider `CC(C)c1ccc(C2C3CSCC=C3C(C#N)=C(N)C2(C#N)C#N)cc1` (configuration not stated), for which the IC50 is 9.55 µM (inactive).
The same measure for `COc1ccc(-c2[nH]ncc2/C=C(/C#N)C(=O)NC2CCCCCC2)cc1`: 9.23 µM (inactive); for `CC(C)(C)c1ccc(Oc2ccc(N)cc2)cc1`: < 0.16 µM (inactive).
Turning to `FC(F)(F)c1nnc(-c2ccccc2)nc1Sc1ccc(Cl)cc1`, the IC50 is > 10 µM (inactive).
Regarding `O=C(C1=C(c2ccccc2)C(=O)c2ccccc2C1=O)c1ccccc1`, the half-maximal inhibitory concentration (IC50) is 4.73 µM.
The figure for `O=C(c1ccco1)N1CCN(c2c(-c3ccccc3)c3cc(Cl)ccc3[nH]c2=O)CC1` is 5.65 µM (inactive); for `CN(C)c1ccc(/C=C/c2ccc3c4ccccc4ccc3[n+]2-c2ccccc2)cc1` it is 1.14 µM (inactive).
The same measure for `O=C(O)c1ccc(N/N=C/c2ccc3nccnc3c2)cc1`: 6.06 µM (inactive).
As to `O=C(CSc1ncnc2[nH]ncc12)Nc1nc(-c2ccc(F)c(F)c2)cs1`, the IC50 was 6.98 µM (inactive).
`COc1ccc(/C=C2/C(=O)ON=C2c2ccccc2)cc1OC`: the IC50 is > 10 µM (inactive).
As for `CCCCCCn1c(-c2ccco2)nc2oc3cc(OC)ccc3c(=O)c2c1=O`, the IC50 is 9.42 µM (inactive).
The same measure for `COC(=O)C(Nc1ccccc1Cl)(c1cc(C)c(O)c(C)c1)C(F)(F)F` (configuration not stated): 9.66 µM (inactive).
Turning to `CCCCCCN=C(CC)c1c(O)n(CCCC)c(=O)[nH]c1=O`, the IC50 was 7.59 µM (inactive).
As to `CCOc1cccc(C(=O)Nc2cccc(-c3nnc(-c4ccc(C)cc4)o3)c2)c1`, the half-maximal inhibitory concentration (IC50) was 2.62 µM.
In the case of `C/C(=N\N=C1\NC(=O)C(CC(=O)Nc2ccc(C)c(Cl)c2)S1)C(C)(C)C` (configuration not stated), the IC50 is 9.43 µM (inactive).
On to `CCc1ccc(-c2cc(C(=O)N3N=C(C(F)F)CC3(O)C(F)F)c3ccccc3n2)cc1` (configuration not stated), for which the IC50 is 5.26 µM (inactive).
The figure for `CCc1ccc(OCC(=O)NC(NC(=S)Nc2ccccc2)C(Cl)(Cl)Cl)cc1` (configuration not stated) is 8.12 µM (inactive).
Turning to `C=CCN1C(=O)/C(=C/c2ccc(OC(C)=O)c(OCC)c2[N+](=O)[O-])SC1=S`, the IC50 was 5.3 µM (inactive).
`CCC(C)(C)NC(=O)C(c1cccn1C)N(C(=O)Cn1nnc2ccccc21)c1ccc(F)cc1` (configuration not stated): the IC50 was > 10 µM (inactive).
The figure for `O=C(COCC(=O)Nc1cccc(C(F)(F)F)c1)Nc1cccc(C(F)(F)F)c1` is 5.44 µM (inactive); for `CCOc1ccc(C2C=C(c3ccc(C)cc3)Nc3nnnn32)cc1` (configuration not stated) it is 9.86 µM (inactive); for `CCN(CC)CCOC(=O)c1ccc(N/C=C(/C#N)c2nc(-c3cccc(OC)c3)cs2)cc1` it is 9.3 µM (inactive).
For the compound `CCCCCCn1c(CN2CCCC(C)C2)nc2c1c(=O)n(C)c(=O)n2C` (configuration not stated), the IC50 is > 10 µM (inactive).
The figure for `Cc1ccc(N(c2ncnc(N)c2[N+](=O)[O-])C2CCCCC2)cc1` is > 10 µM (inactive); for `CCOc1cc(C)c(-c2onc(C(F)(F)F)c2-c2csc(C)n2)c(O)c1` it is > 10 µM (inactive).
The same measure for `O=C(Oc1ccc(O)cc1)C12CC3CC(CC(C3)C1)C2`: > 10 µM (inactive); for `CCOc1cc(S(=O)(=O)Nc2cc(C)cc(C)c2)ccc1Cl`: 9.51 µM (inactive).
In the case of `Cc1ccc(C2CN(C)C3(C(=O)Nc4ccccc43)C23COc2ccccc2C3=O)cc1` (configuration not stated), the IC50 was > 10 µM (inactive).
As to `CCCCn1c(/N=C/c2c[nH]c3ccccc23)nc2ccccc21`, the IC50 is 6.06 µM (inactive).
The figure for `CCOc1ccc(-c2n[nH]c(C)c2Oc2ccc(OC)cc2)c(O)c1` is > 10 µM (inactive); for `CCOC(=O)C1=C(c2ccccc2)O/C(=C(/C#N)C(F)(F)F)S1` it is 6.28 µM (inactive); for `O=C(Nc1ccc(Br)c(C(F)(F)F)c1)c1ccc(C(F)(F)F)cc1` it is 9.82 µM (inactive).
The figure for `Cc1cc(C(=O)CCl)c(C)n1-c1cccc(S(=O)(=O)N2CCOCC2)c1` is > 10 µM (inactive); for `CC(C)Cc1ccc(C(C)C(=O)Nc2nccs2)cc1` (configuration not stated) it is > 10 µM (inactive); for `CN1CCN(c2ccc(-c3ccc4ccccc4n3)cc2)CC1` it is < 0.16 µM (inactive).
Regarding `CCCCS(=O)(=O)/C=C\C=C/S(=O)(=O)CCCC`, the half-inhibitory concentration (IC50) was 2.12 µM.
The same measure for `Cc1cccc(NC2=C/C(=N/S(=O)(=O)c3cccs3)c3ccccc3C2=O)c1`: 4.44 µM.
The same measure for `CCOc1cc(/C=C2/C(=O)ON=C2C)ccc1OCc1ccc(F)cc1`: 9.5 µM (inactive); for `CCOC(=O)C1=C(c2ccc(OC)cc2)C(=O)c2ccccc2C1=O`: 8.81 µM (inactive).
The figure for `O=C(Nc1ccc(OC(F)F)cc1)Nc1cccc(C(F)(F)F)c1` is 8.9 µM (inactive); for `COc1cccc(C(=O)C(C#N)=C(SC)SC)c1` it is > 10 µM (inactive).
Regarding `Cc1cc(C)n(-c2nc(Nc3ccccc3C(F)(F)F)nc(-n3nc(C)cc3C)n2)n1`, the IC50 is 3.93 µM (inactive).
The figure for `CN1CCc2c(sc(NC(=O)c3cc4cc([N+](=O)[O-])ccc4s3)c2C(N)=O)C1` is 4.6 µM.
The figure for `CCCCn1c(=O)c(C(=O)Nc2cnccn2)c(O)c2ccccc21` is 7.31 µM (inactive); for `COC(=O)[C@@H]1[C@@H](C(=O)OC)C2(c3ccccc3-c3ccccc32)N(c2ccc(Cl)cc2)N1C#N` it is 4.53 µM; for `Cc1nn(C(C)(C)C)c(C)c1/C=N/OC(=O)Nc1ccc(Cl)cc1` it is less than 0.16 µM.
Consider `Cc1ccc(-n2ncc(Br)c(Br)c2=O)cc1`, for which the half-inhibitory concentration (IC50) was 4.78 µM.
Regarding `CC(NC(=O)/C(C#N)=C/c1ccc(Cl)c([N+](=O)[O-])c1)c1ccccc1` (configuration not stated), the IC50 was 9.98 µM (inactive).
Take `CC(C)(C)C(=O)Nc1ccc(-c2nc3ccccc3c(=O)o2)cc1`: the IC50 is 0.7 µM (inactive).
